Test system: M. tuberculosis-209
Type: cell-based, Mycobacterium tuberculosis

For O=[N+]([O-])c1ccc(/C(O)=C/C(=S)S)cc1 [Compound 11e, (Z)-3-hydroxy-3-(4-nitrophenyl)-prop-2-enedithioic acid], the “MIC100 in Mtb-209” value was “active”.

Reference: paper PMC8543028 (Infection and Drug Resistance, 2021)
